{"source": "PubChem BioAssay AID2060908", "about": "(Molecular Pharmacology Branch, DTP, NCI, 2025);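 further: spheroids exposed to compounds for 7 days before viability read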", "system": "186277-243-T-J2-PDC complex spheroids, viability", "experiment": "Anticancer human tumor 186277-243-T-J2-PDC patient-derived colon adenocarcinoma cell line growth inhibition [RAS]", "conditions": "for viability, T/C: stronger effect = lower value", "summary_of_the_method": "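Tumour cells grown as complex spheroids with HUVEC endothelial cells and mesenchymal stem cells, treated with RAS pathway inhibitor combinations. Each agent spans half-log steps from near clinical Cmax, or 10 microM where Cmax is unknown.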", "data": [{"smiles": "CC1(O)CCCC1n1c(=O)c(C(F)F)cc2cnc(NC3CCN(S(C)(=O)=O)CC3)nc21", "note": "(configuration not stated) + C#Cc1c(F)ccc2cc(O)cc(-c3ncc4c(N5CC6CCC(C5)N6)nc(OCC56CCCN5CC(F)C6)nc4c3F)c12", "values": [{"measurement": "IC50", "setting": "curve of first compound, second compound 0.0316 µM", "value": 570, "unit": "nM"}, {"measurement": "IC50", "setting": "curve of first compound, second compound 0.1 µM", "value": 104, "unit": "nM"}, {"measurement": "IC50", "setting": "curve of first compound, second compound 0.316 µM", "value": "< 31.6", "unit": "nM"}, {"measurement": "IC50", "setting": "curve of first compound, second compound 1 µM", "value": "< 31.6", "unit": "nM"}, {"measurement": "IC50", "setting": "curve of first compound, second compound 3.16 µM", "value": "< 31.6", "unit": "nM"}, {"measurement": "IC50", "setting": "curve of first compound, second compound 10 µM", "value": "< 31.6", "unit": "nM"}, {"measurement": "viability, T/C", "setting": "second compound 0.0316 µM, first compound 0.0316 µM", "value": 71.2, "unit": "%"}, {"measurement": "viability, T/C", "setting": "second compound 0.0316 µM, first compound 0.1 µM", "value": 69.4, "unit": "%"}, {"measurement": "viability, T/C", "setting": "second compound 0.0316 µM, first compound 0.316 µM", "value": 47.3, "unit": "%"}, {"measurement": "viability, T/C", "setting": "second compound 0.0316 µM, first compound 1 µM", "value": 43.7, "unit": "%"}, {"measurement": "viability, T/C", "setting": "second compound 0.0316 µM, first compound 3.16 µM", "value": 33.4, "unit": "%"}, {"measurement": "viability, T/C", "setting": "second compound 0.0316 µM, first compound 10 µM", "value": 1.2, "unit": "%"}, {"measurement": "viability, T/C", "setting": "second compound 0.1 µM, first compound 0.0316 µM", "value": 65.4, "unit": "%"}, {"measurement": "viability, T/C", "setting": "second compound 0.1 µM, first compound 0.1 µM", "value": 50.3, "unit": "%"}, {"measurement": "viability, T/C", "setting": "second compound 0.1 µM, first compound 0.316 µM", "value": 31.8, "unit": "%"}, {"measurement": "viability, T/C", "setting": "second compound 0.1 µM, first compound 1 µM", "value": 27.8, "unit": "%"}, {"measurement": "viability, T/C", "setting": "second compound 0.1 µM, first compound 3.16 µM", "value": 20.9, "unit": "%"}, {"measurement": "viability, T/C", "setting": "second compound 0.1 µM, first compound 10 µM", "value": 0.42, "unit": "%"}, {"measurement": "viability, T/C", "setting": "second compound 0.316 µM, first compound 0.0316 µM", "value": 23.6, "unit": "%"}, {"measurement": "viability, T/C", "setting": "second compound 0.316 µM, first compound 0.1 µM", "value": 23.3, "unit": "%"}, {"measurement": "viability, T/C", "setting": "second compound 0.316 µM, first compound 0.316 µM", "value": 17, "unit": "%"}, {"measurement": "viability, T/C", "setting": "second compound 0.316 µM, first compound 1 µM", "value": 16.9, "unit": "%"}, {"measurement": "viability, T/C", "setting": "second compound 0.316 µM, first compound 3.16 µM", "value": 11.4, "unit": "%"}, {"measurement": "viability, T/C", "setting": "second compound 0.316 µM, first compound 10 µM", "value": 0.33, "unit": "%"}, {"measurement": "viability, T/C", "setting": "second compound 1 µM, first compound 0.0316 µM", "value": 15.6, "unit": "%"}, {"measurement": "viability, T/C", "setting": "second compound 1 µM, first compound 0.1 µM", "value": 13.1, "unit": "%"}, {"measurement": "viability, T/C", "setting": "second compound 1 µM, first compound 0.316 µM", "value": 10, "unit": "%"}, {"measurement": "viability, T/C", "setting": "second compound 1 µM, first compound 1 µM", "value": 12.4, "unit": "%"}, {"measurement": "viability, T/C", "setting": "second compound 1 µM, first compound 3.16 µM", "value": 10.8, "unit": "%"}, {"measurement": "viability, T/C", "setting": "second compound 1 µM, first compound 10 µM", "value": 0.24, "unit": "%"}, {"measurement": "viability, T/C", "setting": "second compound 3.16 µM, first compound 0.0316 µM", "value": 11.4, "unit": "%"}, {"measurement": "viability, T/C", "setting": "second compound 3.16 µM, first compound 0.1 µM", "value": 12.1, "unit": "%"}, {"measurement": "viability, T/C", "setting": "second compound 3.16 µM, first compound 0.316 µM", "value": 9.69, "unit": "%"}, {"measurement": "viability, T/C", "setting": "second compound 3.16 µM, first compound 1 µM", "value": 8.93, "unit": "%"}, {"measurement": "viability, T/C", "setting": "second compound 3.16 µM, first compound 3.16 µM", "value": 9.39, "unit": "%"}, {"measurement": "viability, T/C", "setting": "second compound 3.16 µM, first compound 10 µM", "value": 0.27, "unit": "%"}, {"measurement": "viability, T/C", "setting": "second compound 10 µM, first compound 0.0316 µM", "value": 9.74, "unit": "%"}, {"measurement": "viability, T/C", "setting": "second compound 10 µM, first compound 0.1 µM", "value": 8.08, "unit": "%"}, {"measurement": "viability, T/C", "setting": "second compound 10 µM, first compound 0.316 µM", "value": 9.05, "unit": "%"}, {"measurement": "viability, T/C", "setting": "second compound 10 µM, first compound 1 µM", "value": 8.95, "unit": "%"}, {"measurement": "viability, T/C", "setting": "second compound 10 µM, first compound 3.16 µM", "value": 8.58, "unit": "%"}, {"measurement": "viability, T/C", "setting": "second compound 10 µM, first compound 10 µM", "value": 0.36, "unit": "%"}]}, {"smiles": "C=CC(=O)Nc1cc(Nc2nccc(-c3cn(C)c4ccccc34)n2)c(OC)cc1N(C)CCN(C)C", "values": [{"measurement": "viability, T/C", "setting": "compound 0.00316 µM", "value": "91.2% [middle of 4 runs]"}, {"measurement": "viability, T/C", "setting": "compound 0.0316 µM", "value": "93.3% [middle of 4 runs]"}, {"measurement": "viability, T/C", "setting": "compound 0.1 µM", "value": "99.4% [middle of 4 runs]"}, {"measurement": "viability, T/C", "setting": "compound 0.316 µM", "value": "94.8% [middle of 4 runs]"}, {"measurement": "IC50", "setting": "curve of compound", "value": "> 1000", "unit": "nM"}]}]}
